Assay results taken from ChEMBL document CHEMBL5518156, “Recent advances of targeting nicotinamide phosphoribosyltransferase (NAMPT) for cancer drug discovery” (Eur J Med Chem, 2023).
Blank lines part the entries; values can stand above or below the compound they belong to.

Columns and labels:
[1] = Clearance in cynomolgus monkey at 5 mg/kg, po; assay type: ADME, organism-based, Macaca fascicularis; details: in vivo
[2] = Clearance in Beagle dog at 5 mg/kg, po; assay type: ADME, organism-based, Canis lupus familiaris; details: in vivo
[3] = Clearance in ICR mouse at 5 mg/kg, po; assay type: ADME, organism-based; details: in vivo
[4] = Clearance in Sprague-Dawley rat at 5 mg/kg, po; assay type: ADME, organism-based; details: in vivo
[5] = Oral bioavailability in ICR mouse at 5 mg/kg by LC-MS/MS analysis; assay type: ADME, organism-based; details: in vivo
[6] = Oral bioavailability in Sprague-Dawley rat at 5 mg/kg by LC-MS/MS analysis; assay type: ADME, organism-based; details: in vivo
[7] = Oral bioavailability in Cynomolgus monkey at 5 mg/kg; assay type: ADME, organism-based, Macaca fascicularis; details: in vivo
[8] = Oral bioavailability in Beagle dog at 5 mg/kg; assay type: ADME, organism-based, Canis lupus familiaris; details: in vivo
COLO 205 = assay: Antitumor activity against human COLO 205 cells xenografted in mouse model assessed as tumor growth inhibition at 15 mg/kg, po administered once daily for 7 days relative to control; assay type: functional; details: COLO 205, 168 h, time 7 day, read-out: TGI
[9] = biological target: T1, Nicotinamide phosphoribosyltransferase (Homo sapiens, UniProt P43490); assay: Inhibition of NAMPT (unknown origin)
[10] = Oral bioavailability in CD-1 mouse at 2 mg/kg; assay type: ADME, organism-based; details: in vivo
[11] = Cmax in CD-1 mouse at 2 mg/kg, iv; assay type: ADME, organism-based; details: in vivo
[12] = AUC in CD-1 mouse at 2 mg/kg, iv; assay type: ADME, organism-based; details: in vivo
[13] = Clearance in CD-1 mouse at 2 mg/kg, iv; assay type: ADME, organism-based; details: in vivo
[14] = Clearance in Sprague-Dawley rat at 1 mg/kg, iv; assay type: ADME, organism-based; details: in vivo
[15] = Half life in Sprague-Dawley rat at 5 mg/kg, po measured for 24 hrs by LC/MS/MS analysis; assay type: ADME, organism-based; details: in vivo
HCT-116 = assay: Antitumor activity against human HCT-116 cells xenografted in […] mouse assessed as tumor growth inhibition at 15 mg/kg, po administered for 3 days relative to control; assay type: functional; details: HCT-116, 72 h, time 3 day, read-out: TGI
Histone deacetylase 1 = Histone deacetylase 1 (Homo sapiens, UniProt Q13547); assay: Inhibition of human recombinant HDAC1 using Boc-Lys(Ac)-AMC as substrate preincubated for 30 mins followed by substrate addition measured for 1 hr by fluorescence based analysis
Cytochrome P450 3A4 = Cytochrome P450 3A4 (Homo sapiens, UniProt P08684); assay: Inhibition of CYP3A4 (unknown origin); assay type: ADME
[16] = Oral bioavailability in Sprague-Dawley rat at 5 mg/kg; assay type: ADME, organism-based; details: in vivo
Cytochrome P450 2C9 = Cytochrome P450 2C9 (Homo sapiens, UniProt P11712); assay: Inhibition of CYP2C9 (unknown origin); assay type: ADME
[17] = biological target: T1, Nicotinamide phosphoribosyltransferase; assay: Inhibition of N-terminal 6His-tagged human NAMPT (unknown origin) expressed in Escherichia coli Rosetta (DE) cells incubated for 1 hr by […]
[18] = biological target: Epidermal growth factor receptor (Homo sapiens, UniProt P00533, L858R); assay: Inhibition of EGFR L858R mutant (unknown origin)
[19] = biological target: Epidermal growth factor receptor (Homo sapiens, UniProt P00533, L861Q); assay: Inhibition of human EGFR L861Q mutant by discoverX kinome scan assay
A549 [20] = assay: Antitumor activity against human A549 cells xenografted in BALB/c nude mouse assessed as tumor growth inhibition at 10 mg/kg, ip administered once daily for 20 days relative to control; assay type: functional; details: A549, 480 h, time 20 day, read-out: TGI
A549 [21] = assay: Antitumor activity against human A549 cells xenografted in BALB/c nude mouse assessed as tumor growth inhibition at 20 mg/kg, ip administered once daily for 20 days relative to control; assay type: functional; details: A549, 480 h, time 20 day, read-out: TGI
[22] = Oral bioavailability in mouse at 2 mg/kg; assay type: ADME, organism-based; details: in vivo
[23] = biological target: von Hippel-Lindau disease tumor suppressor/Nicotinamide phosphoribosyltransferase (Homo sapiens, UniProt P43490+P40337); assay: Protac activity at VHL/NAMPT in human A2780 cells assessed as degradation of NAMPT using NAM as substrate pre-incubated for 30 mins followed by substrate addition measured for 1 hr in presence of ATP by luminescence based microplate reader analysis; assay type: cell-based
[24] = Half life in mouse plasma at 5 mg/kg, iv by LC-MS/MS analysis; assay type: ADME, organism-based
[25] = Cmax in mouse plasma at 30 mg/kg, ip measured upto 24 hrs by LC-MS/MS analysis; assay type: ADME, organism-based
A2780 [26] = assay: Antitumor activity against human A2780 cells xenografted in BALB/c nu/nu mouse assessed as tumor growth inhibition at 30 mg/kg, iv administered once daily for 2 weeks relative to control; assay type: functional; details: A2780, 336 h, read-out: TGI
SH-SY5Y = assay: Antiproliferative activity against human SH-SY5Y cells assessed as cell growth inhibition measured for 48 hrs by MTT assay; assay type: functional, cell-based
MIA PaCa-2 = assay: Antiproliferative activity against human MIA PaCa-2 cells assessed as reduction in cell viability incubated for 72 hrs by MTT assay; assay type: functional, cell-based; details: MIA PaCa-2, 72 h
A2780 [27] = assay: Antiproliferative activity against human A2780 cells assessed as reduction in cell viability measured for 72 hrs by MTT assay; assay type: functional, cell-based; details: A2780, 72 h
[28] = Oral bioavailability in Sprague-Dawley rat at 10 mg/kg by LC-MS analysis; assay type: ADME, organism-based; details: in vivo
[29] = Cmax in Sprague-Dawley rat at 10 mg/kg, po by LC-MS analysis; assay type: ADME, organism-based; details: in vivo

T1 sequence (P43490 whole entry): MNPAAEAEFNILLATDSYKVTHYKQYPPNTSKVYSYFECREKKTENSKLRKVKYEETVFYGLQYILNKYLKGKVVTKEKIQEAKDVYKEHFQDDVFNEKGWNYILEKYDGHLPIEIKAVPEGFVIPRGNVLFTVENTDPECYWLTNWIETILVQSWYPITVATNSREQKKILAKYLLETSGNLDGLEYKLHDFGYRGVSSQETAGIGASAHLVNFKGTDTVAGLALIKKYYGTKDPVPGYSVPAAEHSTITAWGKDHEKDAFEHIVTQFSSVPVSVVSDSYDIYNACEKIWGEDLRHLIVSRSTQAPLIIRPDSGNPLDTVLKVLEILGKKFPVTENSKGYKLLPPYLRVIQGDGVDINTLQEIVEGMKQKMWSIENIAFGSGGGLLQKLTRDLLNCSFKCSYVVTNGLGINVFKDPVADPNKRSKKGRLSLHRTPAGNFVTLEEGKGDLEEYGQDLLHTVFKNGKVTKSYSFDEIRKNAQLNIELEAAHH
Sequence of Epidermal growth factor receptor (Homo sapiens, UniProt P00533, L858R) (P00533 25-1210 L858R limits assumed): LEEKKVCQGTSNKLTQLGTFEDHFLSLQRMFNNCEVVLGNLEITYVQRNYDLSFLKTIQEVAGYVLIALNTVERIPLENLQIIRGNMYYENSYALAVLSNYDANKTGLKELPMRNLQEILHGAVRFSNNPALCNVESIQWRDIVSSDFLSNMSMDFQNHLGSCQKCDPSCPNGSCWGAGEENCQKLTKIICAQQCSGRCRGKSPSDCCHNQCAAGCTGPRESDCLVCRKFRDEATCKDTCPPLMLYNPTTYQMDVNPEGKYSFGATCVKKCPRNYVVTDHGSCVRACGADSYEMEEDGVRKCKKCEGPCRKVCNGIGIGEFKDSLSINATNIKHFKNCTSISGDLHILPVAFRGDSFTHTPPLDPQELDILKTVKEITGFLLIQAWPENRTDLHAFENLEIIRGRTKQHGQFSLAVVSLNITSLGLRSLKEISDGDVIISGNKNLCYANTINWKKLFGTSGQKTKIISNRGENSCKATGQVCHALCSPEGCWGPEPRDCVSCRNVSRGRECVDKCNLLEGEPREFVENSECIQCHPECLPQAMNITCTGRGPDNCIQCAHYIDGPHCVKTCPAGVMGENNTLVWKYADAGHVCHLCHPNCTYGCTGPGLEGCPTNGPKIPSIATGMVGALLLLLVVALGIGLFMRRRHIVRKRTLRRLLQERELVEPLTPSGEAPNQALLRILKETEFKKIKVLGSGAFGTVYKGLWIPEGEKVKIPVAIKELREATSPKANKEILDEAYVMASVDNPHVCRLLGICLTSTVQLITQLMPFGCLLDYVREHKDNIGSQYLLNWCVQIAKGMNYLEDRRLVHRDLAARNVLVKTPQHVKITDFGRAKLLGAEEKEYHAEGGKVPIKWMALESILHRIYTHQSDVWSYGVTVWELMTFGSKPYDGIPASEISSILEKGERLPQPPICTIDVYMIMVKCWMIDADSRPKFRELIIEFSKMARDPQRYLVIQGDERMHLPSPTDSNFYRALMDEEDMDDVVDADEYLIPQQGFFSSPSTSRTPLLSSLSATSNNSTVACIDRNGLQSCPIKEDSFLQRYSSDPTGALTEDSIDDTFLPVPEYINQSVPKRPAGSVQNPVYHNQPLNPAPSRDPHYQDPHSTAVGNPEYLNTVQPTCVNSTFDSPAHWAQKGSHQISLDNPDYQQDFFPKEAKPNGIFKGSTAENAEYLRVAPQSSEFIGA
Sequence of Cytochrome P450 2C9 (P11712 whole entry): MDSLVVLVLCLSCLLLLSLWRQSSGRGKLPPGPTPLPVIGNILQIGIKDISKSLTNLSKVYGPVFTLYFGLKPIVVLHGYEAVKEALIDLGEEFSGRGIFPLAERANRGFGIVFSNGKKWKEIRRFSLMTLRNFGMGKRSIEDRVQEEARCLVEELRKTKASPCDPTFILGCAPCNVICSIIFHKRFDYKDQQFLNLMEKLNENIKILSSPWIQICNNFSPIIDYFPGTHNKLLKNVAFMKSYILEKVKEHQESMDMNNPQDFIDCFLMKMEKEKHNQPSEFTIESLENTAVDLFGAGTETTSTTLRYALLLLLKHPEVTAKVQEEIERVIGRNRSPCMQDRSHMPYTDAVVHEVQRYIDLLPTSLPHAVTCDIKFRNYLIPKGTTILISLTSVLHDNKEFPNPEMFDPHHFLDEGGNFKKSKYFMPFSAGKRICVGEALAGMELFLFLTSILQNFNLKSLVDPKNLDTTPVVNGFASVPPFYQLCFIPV
Sequence of Histone deacetylase 1 (Q13547 whole entry): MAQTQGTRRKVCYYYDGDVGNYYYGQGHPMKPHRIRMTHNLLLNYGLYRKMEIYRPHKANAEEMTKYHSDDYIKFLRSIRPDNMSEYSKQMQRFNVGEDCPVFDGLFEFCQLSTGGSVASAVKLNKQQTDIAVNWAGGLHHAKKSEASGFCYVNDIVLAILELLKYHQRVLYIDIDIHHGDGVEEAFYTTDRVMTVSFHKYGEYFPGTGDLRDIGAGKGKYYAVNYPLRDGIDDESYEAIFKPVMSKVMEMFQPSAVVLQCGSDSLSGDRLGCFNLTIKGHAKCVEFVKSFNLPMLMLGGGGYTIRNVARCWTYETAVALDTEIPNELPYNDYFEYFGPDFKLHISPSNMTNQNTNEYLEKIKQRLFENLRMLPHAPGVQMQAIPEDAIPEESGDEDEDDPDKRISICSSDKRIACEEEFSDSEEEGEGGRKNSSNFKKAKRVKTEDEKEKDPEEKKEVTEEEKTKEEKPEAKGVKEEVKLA
Sequence of Cytochrome P450 3A4 (P08684 whole entry): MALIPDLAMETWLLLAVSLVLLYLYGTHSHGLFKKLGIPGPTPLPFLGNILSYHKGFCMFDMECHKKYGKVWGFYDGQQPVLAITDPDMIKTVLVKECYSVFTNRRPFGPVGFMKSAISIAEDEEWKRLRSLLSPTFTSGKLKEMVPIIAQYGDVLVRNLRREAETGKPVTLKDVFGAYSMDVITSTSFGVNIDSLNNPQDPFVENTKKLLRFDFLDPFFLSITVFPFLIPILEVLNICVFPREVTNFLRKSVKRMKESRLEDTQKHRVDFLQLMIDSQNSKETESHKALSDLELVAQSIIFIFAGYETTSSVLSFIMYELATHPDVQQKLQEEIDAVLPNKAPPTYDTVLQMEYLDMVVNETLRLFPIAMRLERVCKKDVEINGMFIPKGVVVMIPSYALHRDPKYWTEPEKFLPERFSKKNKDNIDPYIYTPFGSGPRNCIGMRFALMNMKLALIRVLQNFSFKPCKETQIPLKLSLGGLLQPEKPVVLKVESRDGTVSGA
Sequence of von Hippel-Lindau disease tumor suppressor/Nicotinamide phosphoribosyltransferase (P43490 whole entry): as the sequence (P43490 whole entry) above
Sequence of von Hippel-Lindau disease tumor suppressor/Nicotinamide phosphoribosyltransferase (P40337 whole entry): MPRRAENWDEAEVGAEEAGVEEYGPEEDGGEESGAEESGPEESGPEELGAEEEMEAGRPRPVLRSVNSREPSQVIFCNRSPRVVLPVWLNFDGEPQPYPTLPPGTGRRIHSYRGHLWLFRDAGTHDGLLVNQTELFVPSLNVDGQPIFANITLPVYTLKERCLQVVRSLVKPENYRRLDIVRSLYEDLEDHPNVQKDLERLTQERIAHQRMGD
Sequence of Epidermal growth factor receptor (Homo sapiens, UniProt P00533, L861Q) (P00533 25-1210 L861Q limits assumed): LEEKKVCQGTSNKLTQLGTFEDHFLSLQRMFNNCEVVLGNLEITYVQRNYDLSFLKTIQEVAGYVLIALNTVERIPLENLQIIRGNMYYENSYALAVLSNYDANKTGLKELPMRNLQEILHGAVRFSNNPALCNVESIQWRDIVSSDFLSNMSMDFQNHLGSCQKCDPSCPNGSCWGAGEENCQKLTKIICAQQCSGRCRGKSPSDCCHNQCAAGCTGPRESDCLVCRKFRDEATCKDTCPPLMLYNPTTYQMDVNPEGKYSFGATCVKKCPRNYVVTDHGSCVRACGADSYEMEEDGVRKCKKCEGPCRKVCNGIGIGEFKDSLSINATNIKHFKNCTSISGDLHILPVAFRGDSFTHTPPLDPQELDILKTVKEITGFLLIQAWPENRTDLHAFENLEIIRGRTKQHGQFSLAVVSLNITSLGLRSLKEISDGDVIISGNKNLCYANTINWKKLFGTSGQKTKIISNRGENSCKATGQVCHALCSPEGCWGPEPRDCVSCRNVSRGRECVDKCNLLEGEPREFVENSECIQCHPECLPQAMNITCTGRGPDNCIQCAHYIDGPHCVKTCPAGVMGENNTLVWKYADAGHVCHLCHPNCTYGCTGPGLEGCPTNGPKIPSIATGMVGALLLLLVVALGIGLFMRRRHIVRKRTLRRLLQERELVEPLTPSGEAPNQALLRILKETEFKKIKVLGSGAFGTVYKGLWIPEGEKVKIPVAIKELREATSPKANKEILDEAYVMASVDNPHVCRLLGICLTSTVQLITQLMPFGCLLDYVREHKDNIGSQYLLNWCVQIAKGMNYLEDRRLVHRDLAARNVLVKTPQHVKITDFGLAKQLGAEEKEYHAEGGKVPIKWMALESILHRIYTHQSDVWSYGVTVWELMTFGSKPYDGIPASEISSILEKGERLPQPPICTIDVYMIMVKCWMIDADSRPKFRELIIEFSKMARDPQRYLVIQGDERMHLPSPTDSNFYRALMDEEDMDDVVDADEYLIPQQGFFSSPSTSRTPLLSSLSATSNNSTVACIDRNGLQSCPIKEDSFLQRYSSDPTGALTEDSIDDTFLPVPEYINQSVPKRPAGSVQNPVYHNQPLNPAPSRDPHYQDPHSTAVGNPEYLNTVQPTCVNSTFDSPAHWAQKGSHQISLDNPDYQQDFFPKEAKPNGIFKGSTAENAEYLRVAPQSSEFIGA

- CL/F [1]: 9.14 mL/min/kg
- CL/F [2]: 4.62 mL/min/kg
- CL/F [3]: 36.4 mL/min/kg
- CL/F [4]: 19.3 mL/min/kg
- bioavailability [5]: 29.7%
- bioavailability [6]: 33.9%
- bioavailability [7]: 29.4%
- bioavailability [8]: 65.2%
Structure (SMILES): O=C(NCc1ccc(S(=O)(=O)c2cc(F)cc(F)c2)cc1)c1ccc2nccn2c1
- inhibition in vivo at 15 mg/kg (COLO 205): 57%

- IC50 [9]: 3.2 nM
- bioavailability [10]: 39%
- Cmax [11]: 57 nM
- AUC [12]: 0.195 µM·h
- clearance [13]: 159 mL/min/kg
Structure (SMILES): CC(C)(O)CS(=O)(=O)Nc1ccc2c(c1)CCN(C(=O)COc1cccnc1)C2

- clearance [14]: 4.33 mL/min/kg
- half-life [15]: 3 h
Structure (SMILES): O=C(NC[C@@H]1CCOC1)c1ccc(NC(=O)N2Cc3ccccc3C2)cc1
- inhibition in vivo at 15 mg/kg (HCT-116): 78%

- IC50 (Histone deacetylase 1): 55000 nM
Structure (SMILES): Nc1ccccc1NC(=O)c1ccc(Cn2cc(-c3ccc(C(=O)NCc4cccnc4)cc3)nn2)cc1

Structure (SMILES): CC(C)(O)CC(=O)N1CCC(c2ccc(NC(=O)N3Cc4ccccc4C3)cc2)CC1
- IC50 (Cytochrome P450 3A4): > 20000 nM
- bioavailability [16]: 100%
- half-life [15]: 4.8 h
- IC50 (Cytochrome P450 2C9): > 20000 nM
- inhibition in vivo at 15 mg/kg (HCT-116): 90%

- IC50 [17]: 4.3 nM
Structure (SMILES): CC(=O)NCc1ncc2cc(COc3ccc(C(=O)NCc4cccnc4)cc3)n(CCC3CCCCC3)c2n1

- IC50 [18]: 0.48 nM
- IC50 [19]: 0.49 nM
Structure (SMILES): C#Cc1cccc(Nc2ncnc3cc(OC)c(OCCCCCCCN/C(=N\C#N)Nc4ccncc4)cc23)c1

- bioavailability [22]: 5.8%
Structure (SMILES): Cc1c(CNc2ccc(CCNC(=O)/C=C/c3cccnc3)cc2)oc2c1C(=O)C(=O)c1c-2ccc2c1CCCC2(C)C
- inhibition in vivo at 10 mg/kg (A549 [20]): 44.2%
- inhibition in vivo at 20 mg/kg (A549 [21]): 52.1%

- DC50 [23]: 8.4 nM
- half-life [24]: 9.89 h
- Cmax [25]: 166 nM
Structure (SMILES): CCCn1c(=O)c(-c2ccc(C(=O)NCc3cccnc3)cc2)nc2ccc(NC(=O)CCCCCCCCCCC(=O)N[C@H](C(=O)N3C[C@H](O)C[C@H]3C(=O)N[C@@H](C)c3ccc(-c4scnc4C)cc3)C(C)(C)C)cc21
- inhibition in vivo at 30 mg/kg (A2780 [26]): 73%

- IC50 [9]: 41.8 nM
- IC50 (SH-SY5Y): > 10000 nM
Structure (SMILES): CN1CCN(Cc2cn(-c3cccc(C(=O)NCCCCCCCn4cc(-c5cccnc5)nn4)c3)nn2)CC1

- IC50 [9]: 13.6 nM
- IC50 (SH-SY5Y): > 10000 nM
Structure (SMILES): O=C(NCCCCCCCn1cc(-c2cccnc2)nn1)c1cccc(-n2cc(CN3CCC(O)CC3)nn2)c1

- IC50 (MIA PaCa-2): 32000 nM
Structure (SMILES): COC[C@H]1N[C@@H](c2ccc(NC(=O)c3ccc(CNS(=O)(=O)c4ccc(C(C)(C)C)cc4)cc3)cc2)[C@H](OC)[C@@H]1OC

- IC50 (A2780 [27]): 46 nM
- IC50 [9]: 490 nM
Structure (SMILES): Cc1ccc(C(=O)N(CCCNC(=O)CCCCCCCCN2CCN(S(=O)(=O)c3ccc(NC(=S)NCc4cccnc4)cc3)CC2)[C@@H](c2nc3cc(Cl)ccc3c(=O)n2Cc2ccccc2)C(C)C)cc1

- bioavailability [28]: 23.2%
- Cmax [29]: 135 ng/mL
Structure (SMILES): O=C(/C=C/c1cccnc1)NCCCCC1CCN(C(=O)c2ccc(N3CCN(CCCCCCC#Cc4cccc5c4CN(C4CCC(=O)NC4=O)C5=O)CC3)cc2)CC1 (configuration not stated)
